Among the targets are Carbonic anhydrase 3 (Homo sapiens, UniProt P07451); Carbonic anhydrase 4 (Homo sapiens, UniProt P22748); Carbonic anhydrase 6 (Homo sapiens, UniProt P23280); Carbonic anhydrase 7 (Homo sapiens, UniProt P43166); Carbonic anhydrase 9 (Homo sapiens, UniProt Q16790); Carbonic anhydrase 12 (Homo sapiens, UniProt O43570); Carbonic anhydrase 13 (Homo sapiens, UniProt Q8N1Q1); Carbonic anhydrase 14 (Homo sapiens, UniProt Q9ULX7).

Test [1] addresses Carbonic anhydrase 5A, mitochondrial (Homo sapiens, UniProt P35218).
Description: Inhibition of recombinant human CA5a preincubated for 15 mins prior to testing measured for 10 to 100 secs by phenol red based stopped-flow CO2 hydration assay
Test [2] deals with Carbonic anhydrase 5B, mitochondrial (Homo sapiens, UniProt Q9Y2D0).
Carbonic anhydrase 5B, mitochondrial, sequence (Q9Y2D0 whole entry): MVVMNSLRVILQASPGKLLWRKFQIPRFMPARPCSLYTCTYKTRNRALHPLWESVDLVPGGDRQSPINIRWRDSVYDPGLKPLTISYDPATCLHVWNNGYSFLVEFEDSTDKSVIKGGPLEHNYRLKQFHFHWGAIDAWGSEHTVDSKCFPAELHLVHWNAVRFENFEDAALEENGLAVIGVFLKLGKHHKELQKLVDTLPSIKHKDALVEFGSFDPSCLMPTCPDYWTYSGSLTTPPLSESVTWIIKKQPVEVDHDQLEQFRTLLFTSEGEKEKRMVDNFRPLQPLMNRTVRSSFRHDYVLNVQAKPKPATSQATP
Description: Inhibition of recombinant human CA5b preincubated for 15 mins prior to testing measured for 10 to 100 secs by phenol red based stopped-flow CO2 hydration assay

Molecules are shown by their SMILES. A value given as a limit tells only on which side of the number the result lay.

One compound from ChEMBL document CHEMBL4266011 (ACS Med Chem Lett, 2018) can be followed below.

Carbonic anhydrase 3, sequence (P07451 whole entry): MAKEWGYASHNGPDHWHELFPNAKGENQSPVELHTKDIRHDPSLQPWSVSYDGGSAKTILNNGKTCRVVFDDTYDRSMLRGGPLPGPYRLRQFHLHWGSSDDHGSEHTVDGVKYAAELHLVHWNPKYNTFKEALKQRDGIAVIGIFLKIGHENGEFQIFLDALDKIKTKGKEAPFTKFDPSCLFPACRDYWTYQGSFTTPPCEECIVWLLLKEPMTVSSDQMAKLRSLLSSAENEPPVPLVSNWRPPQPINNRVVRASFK
Carbonic anhydrase 5A, mitochondrial, sequence (P35218 whole entry): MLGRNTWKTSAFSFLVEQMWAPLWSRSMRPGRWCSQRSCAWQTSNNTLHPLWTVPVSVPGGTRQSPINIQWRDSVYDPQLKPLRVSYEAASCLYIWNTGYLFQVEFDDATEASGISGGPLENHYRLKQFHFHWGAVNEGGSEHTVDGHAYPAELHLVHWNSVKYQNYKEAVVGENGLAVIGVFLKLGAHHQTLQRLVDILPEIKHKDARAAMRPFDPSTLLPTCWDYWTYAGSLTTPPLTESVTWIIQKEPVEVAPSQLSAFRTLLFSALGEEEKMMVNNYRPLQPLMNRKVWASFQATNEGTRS
Carbonic anhydrase 7, sequence (P43166 whole entry): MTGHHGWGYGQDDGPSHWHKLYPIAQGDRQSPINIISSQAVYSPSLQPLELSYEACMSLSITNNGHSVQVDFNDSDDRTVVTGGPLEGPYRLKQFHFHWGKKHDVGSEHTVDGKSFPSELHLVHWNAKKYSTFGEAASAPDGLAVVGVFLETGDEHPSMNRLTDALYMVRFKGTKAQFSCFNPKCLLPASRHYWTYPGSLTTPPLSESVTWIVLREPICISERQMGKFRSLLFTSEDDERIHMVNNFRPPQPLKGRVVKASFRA
Carbonic anhydrase 13, sequence (Q8N1Q1 whole entry): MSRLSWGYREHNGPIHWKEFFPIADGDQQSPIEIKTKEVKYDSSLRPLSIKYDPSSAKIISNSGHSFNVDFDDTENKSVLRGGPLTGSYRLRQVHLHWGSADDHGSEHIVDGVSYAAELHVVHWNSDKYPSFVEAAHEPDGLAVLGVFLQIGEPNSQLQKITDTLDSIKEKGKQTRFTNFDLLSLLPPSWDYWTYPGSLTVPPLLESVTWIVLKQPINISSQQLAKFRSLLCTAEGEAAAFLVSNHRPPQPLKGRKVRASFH
Carbonic anhydrase 4, sequence (P22748 whole entry): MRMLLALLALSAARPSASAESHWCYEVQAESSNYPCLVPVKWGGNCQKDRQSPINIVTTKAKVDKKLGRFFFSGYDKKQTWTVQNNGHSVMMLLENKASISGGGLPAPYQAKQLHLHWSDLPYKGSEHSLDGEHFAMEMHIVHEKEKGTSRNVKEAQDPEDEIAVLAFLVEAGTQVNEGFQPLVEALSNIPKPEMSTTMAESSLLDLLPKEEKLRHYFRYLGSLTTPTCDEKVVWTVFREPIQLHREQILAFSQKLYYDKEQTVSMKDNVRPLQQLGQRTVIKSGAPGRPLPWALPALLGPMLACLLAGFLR
Carbonic anhydrase 6, sequence (P23280 whole entry): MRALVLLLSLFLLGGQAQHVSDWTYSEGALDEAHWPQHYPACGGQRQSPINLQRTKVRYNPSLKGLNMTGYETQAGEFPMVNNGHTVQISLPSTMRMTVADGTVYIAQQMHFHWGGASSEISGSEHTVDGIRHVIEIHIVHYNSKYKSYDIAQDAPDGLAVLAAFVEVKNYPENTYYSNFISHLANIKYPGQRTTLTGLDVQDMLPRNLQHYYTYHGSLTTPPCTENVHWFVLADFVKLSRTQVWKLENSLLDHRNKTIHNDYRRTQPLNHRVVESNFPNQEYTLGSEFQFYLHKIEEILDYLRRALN
Carbonic anhydrase 14, sequence (Q9ULX7 whole entry): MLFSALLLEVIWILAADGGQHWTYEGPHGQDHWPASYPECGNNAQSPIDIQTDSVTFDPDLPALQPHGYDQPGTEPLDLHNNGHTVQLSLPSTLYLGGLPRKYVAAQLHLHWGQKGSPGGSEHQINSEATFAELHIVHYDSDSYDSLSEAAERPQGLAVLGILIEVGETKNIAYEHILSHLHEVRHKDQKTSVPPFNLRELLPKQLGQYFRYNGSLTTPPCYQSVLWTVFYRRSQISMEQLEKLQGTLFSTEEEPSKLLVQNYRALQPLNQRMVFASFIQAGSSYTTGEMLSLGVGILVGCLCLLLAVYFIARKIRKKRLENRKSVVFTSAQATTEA
Carbonic anhydrase 12, sequence (O43570 whole entry): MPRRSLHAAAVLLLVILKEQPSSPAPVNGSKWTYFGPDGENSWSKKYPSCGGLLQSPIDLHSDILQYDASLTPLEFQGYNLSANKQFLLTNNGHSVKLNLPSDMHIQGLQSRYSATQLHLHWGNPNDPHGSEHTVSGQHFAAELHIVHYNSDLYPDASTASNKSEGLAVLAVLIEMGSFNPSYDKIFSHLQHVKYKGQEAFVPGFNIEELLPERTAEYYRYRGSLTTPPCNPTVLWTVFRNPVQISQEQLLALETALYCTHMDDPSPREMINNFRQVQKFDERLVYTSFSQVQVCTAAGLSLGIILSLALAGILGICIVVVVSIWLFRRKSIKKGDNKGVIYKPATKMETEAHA
Description for Carbonic anhydrase 12: Inhibition of recombinant human CA12 preincubated for 15 mins prior to testing measured for 10 to 100 secs by phenol red based stopped-flow CO2 hydration assay
Description for Carbonic anhydrase 13: Inhibition of recombinant human CA13 preincubated for 15 mins prior to testing measured for 10 to 100 secs by phenol red based stopped-flow CO2 hydration assay
Description for Carbonic anhydrase 14: Inhibition of recombinant human CA14 preincubated for 15 mins prior to testing measured for 10 to 100 secs by phenol red based stopped-flow CO2 hydration assay
Description for Carbonic anhydrase 3: Inhibition of recombinant human CA3 preincubated for 15 mins prior to testing measured for 10 to 100 secs by phenol red based stopped-flow CO2 hydration assay
Description for Carbonic anhydrase 4: Inhibition of recombinant human CA4 preincubated for 15 mins prior to testing measured for 10 to 100 secs by phenol red based stopped-flow CO2 hydration assay
Description for Carbonic anhydrase 6: Inhibition of recombinant human CA6 preincubated for 15 mins prior to testing measured for 10 to 100 secs by phenol red based stopped-flow CO2 hydration assay
Description for Carbonic anhydrase 7: Inhibition of recombinant human CA7 preincubated for 15 mins prior to testing measured for 10 to 100 secs by phenol red based stopped-flow CO2 hydration assay

The Ki is a measure of affinity in units of concentration, obtained from inhibition or displacement. For the compound `NC(N)=Nc1nc(CSCCC(N)=NS(N)(=O)=O)cs1` [FAMOTIDINE], the Ki at Carbonic anhydrase 3 is above 10000 nM; at Carbonic anhydrase 4, 939 nM; in test [1], 1430 nM; in [2] it was 5330 nM; on Carbonic anhydrase 6, 98.2 nM; at Carbonic anhydrase 7 it was 3 nM. Besides, the Ki on Carbonic anhydrase 9 is 126 nM; on Carbonic anhydrase 12, 45.3 nM; at Carbonic anhydrase 13 it was 172 nM; on Carbonic anhydrase 14 it was 677 nM.
